We go through eight test systems from the supplement of paper PMC10331698.

Assay in all cases: level (log10 ratio to DMSO vehicle control); higher = higher biomarker level / cell amount than vehicle control
Details in all cases: in DMSO

Compound in experiment [1]: NS(=O)(=O)C(F)(F)C(F)(F)C(F)(F)C(F)(F)C(F)(F)C(F)(F)F [Perfluorohexanesulfonamide]
As to the method: (§1)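 BioMAP Diversity Plus panel of 12 human primary cell co-culture systems (3C, 4H, LPS, SAg, BT, BF4T, BE3C, CASM3C, HDF3CGF, KF3CT, MyoF, Mphg). Compounds were added 1 h before stimulation and left for 24 h (MyoF 48 h; BT 72 h for soluble read-outs or 6 d for IgG). Biomarkers were read by ELISA, cytotoxicity by SRB, PBMC viability and proliferation by Alamar Blue. Each well value was divided by the mean of 8 DMSO control wells on the same plate and log10 transformed; duplicate blinded samples were tested at 4 concentrations.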

Compound in experiment [2]: FC(F)(F)C(F)(F)C(F)(F)CC1CO1 [1H,1H-Heptafluorobutyl epoxide]
The procedure:
as §1

Compound in experiment [3]: FC(F)(F)C(F)(F)C(F)(F)CI [Heptafluorobutyl iodide]
As to the method: as §1

Compound in experiment [4]: NC(=O)C(F)(F)C(F)(F)C(F)(F)C(F)F
As to the method:
as §1

Compound in experiment [5]: O=S(=O)(F)C(F)(F)C(F)(F)C(F)(F)C(F)(F)C(F)(F)C(F)(F)C(F)(F)C(F)(F)F [Perfluorooctanesulfonyl fluoride]
As to the method:
as §1

Compound in experiment [6]: O=C(O)C=CC(F)(C(F)(F)F)C(F)(F)F [3-(Perfluoroisopropyl)-2-propenoic acid]
The procedure:
as §1

± gives the standard deviation of the averaged measurements.

On to BE3C:CXCL8/IL-8, for which the “level (log10)” value in experiment [1] (6700 nM) was -0.0795 ± 0.044; in experiment [1] (20000 nM) it was -0.161 ± 0.0078; in experiment [1] (60000 nM) it was -0.3 ± 0.039; in experiment [2] (6700 nM), 0.01 ± 0.062; in experiment [2] (20000 nM) it was 0.0235 ± 0.029; in experiment [2] (60000 nM) it was 0.0505 ± 0.081. Besides, the “level (log10)” value turned out to be 0.029 ± 0.04 in experiment [3] (6700 nM); 0.008 ± 0.037 in experiment [3] (20000 nM); 0.021 ± 0.021 in experiment [3] (60000 nM); 0.025 ± 0.035 in experiment [4] (6700 nM); 0.0405 ± 0.0078 in experiment [4] (20000 nM); 0.0565 ± 0.04 in experiment [4] (60000 nM). In addition, the “level (log10)” value was 0.0175 ± 0.0021 in experiment [5] (6700 nM); 0.0295 ± 0.011 in experiment [5] (20000 nM); 0.0615 ± 0.029 in experiment [5] (60000 nM); -0.0015 ± 0.035 in experiment [6] (6700 nM); 0.003 ± 0.0057 in experiment [6] (20000 nM); 0.0545 ± 0.059 in experiment [6] (60000 nM).

Consider BE3C:CXCL9/MIG, for which the “level (log10)” value is -0.0025 ± 0.0064 in experiment [1] (6700 nM); -0.0005 ± 0.0078 in experiment [1] (20000 nM); -0.0065 ± 0.0078 in experiment [1] (60000 nM); -0.0125 ± 0.0064 in experiment [2] (6700 nM); 0 ± 0.0028 in experiment [2] (20000 nM); -0.0075 ± 0.0064 in experiment [2] (60000 nM). Further, the “level (log10)” value was -0.002 ± 0.0099 in experiment [3] (6700 nM); -0.002 ± 0.0014 in experiment [3] (20000 nM); 0.0065 ± 0.018 in experiment [3] (60000 nM); 0.012 ± 0.024 in experiment [4] (6700 nM); 0.009 ± 0.0071 in experiment [4] (20000 nM); 0.006 ± 0.0085 in experiment [4] (60000 nM). The “level (log10)” value in experiment [5] (6700 nM) is 0.0035 ± 0.005; in experiment [5] (20000 nM), -0.0025 ± 0.0064; in experiment [5] (60000 nM), 0.007 ± 0.017; in experiment [6] (6700 nM) it was 0.0135 ± 0.015; in experiment [6] (20000 nM) it was 0.016 ± 0.017; in experiment [6] (60000 nM), 0.0235 ± 0.013.

Consider BE3C:CXCL10/IP-10, for which the “level (log10)” value is -0.016 ± 0.04 in experiment [1] (6700 nM); -0.086 ± 0.042 in experiment [1] (20000 nM); -0.235 ± 0.047 in experiment [1] (60000 nM); -0.013 ± 0.0071 in experiment [2] (6700 nM); -0.0065 ± 0.0092 in experiment [2] (20000 nM); -0.012 ± 0.0042 in experiment [2] (60000 nM). In addition, the “level (log10)” value in experiment [3] (6700 nM) is -0.0015 ± 0.0064; in experiment [3] (20000 nM), -0.005 ± 0.0057; in experiment [3] (60000 nM), 0.005 ± 0.013; in experiment [4] (6700 nM) it was 0.0025 ± 0.0064; in experiment [4] (20000 nM) it was -0.0015 ± 0.016; in experiment [4] (60000 nM), 0.007 ± 0.013. Besides, the “level (log10)” value amounted to 0.0095 ± 0.035 in experiment [5] (6700 nM); 0.0115 ± 0.025 in experiment [5] (20000 nM); 0.008 ± 0.03 in experiment [5] (60000 nM); 0.0055 ± 0.0035 in experiment [6] (6700 nM); 0.004 ± 0.0099 in experiment [6] (20000 nM); 0.009 ± 0.0014 in experiment [6] (60000 nM).

Turning to BE3C:HLA-DR, the “level (log10)” value was -0.01 ± 0.0042 in experiment [1] (6700 nM); -0.032 ± 0.018 in experiment [1] (20000 nM); -0.0685 ± 0.018 in experiment [1] (60000 nM); 0.002 ± 0.013 in experiment [2] (6700 nM); -0.0075 ± 0.012 in experiment [2] (20000 nM); -0.01 ± 0.025 in experiment [2] (60000 nM). Moreover, the “level (log10)” value in experiment [3] (6700 nM) is -0.0055 ± 0.0064; in experiment [3] (20000 nM), -0.022 ± 0.024; in experiment [3] (60000 nM), -0.0035 ± 0.018; in experiment [4] (6700 nM), 0.0065 ± 0.016; in experiment [4] (20000 nM) it was 0.008 ± 0.0057; in experiment [4] (60000 nM), -0.0025 ± 0.023. Moreover, the “level (log10)” value in experiment [5] (6700 nM) was -0.0105 ± 0.012; in experiment [5] (20000 nM), -0.0125 ± 0.011; in experiment [5] (60000 nM), -0.01 ± 0.011; in experiment [6] (6700 nM) it was -0.0075 ± 0.013; in experiment [6] (20000 nM), 0.0035 ± 0.015; in experiment [6] (60000 nM), 0.0095 ± 0.018.

As to BF4T:CCL2/MCP-1, the “level (log10)” value in experiment [1] (6700 nM) is -0.0415 ± 0.018; in experiment [1] (20000 nM), -0.072 ± 0.0085; in experiment [1] (60000 nM), -0.107 ± 0.0042; in experiment [2] (6700 nM) it was 0.005 ± 0.0014; in experiment [2] (20000 nM) it was -0.0095 ± 0.0035; in experiment [2] (60000 nM), 0.014 ± 0.0042. The “level (log10)” value is 0.0025 ± 0.028 in experiment [3] (6700 nM); 0.068 ± 0.11 in experiment [3] (20000 nM); 0.046 ± 0.023 in experiment [3] (60000 nM); 0.008 ± 0.0042 in experiment [4] (6700 nM); -0.0135 ± 0.0092 in experiment [4] (20000 nM); 0.0165 ± 0.047 in experiment [4] (60000 nM). In addition, the “level (log10)” value in experiment [5] (6700 nM) was 0.006 ± 0.0071; in experiment [5] (20000 nM), -0.0425 ± 0.0064; in experiment [5] (60000 nM) it was -0.0055 ± 0.037; in experiment [6] (6700 nM) it was 0.0045 ± 0.023; in experiment [6] (20000 nM), 0.003 ± 0.013; in experiment [6] (60000 nM), 0.0505 ± 0.076.

Regarding BF4T:CCL26/Eotaxin-3, the “level (log10)” value was -0.017 ± 0.018 in experiment [1] (6700 nM); -0.064 ± 0.0028 in experiment [1] (20000 nM); -0.151 ± 0.012 in experiment [1] (60000 nM); -0.001 ± 0.013 in experiment [2] (6700 nM); 0.0095 ± 0.0035 in experiment [2] (20000 nM); 0.01 ± 0.011 in experiment [2] (60000 nM). For the same test system, the “level (log10)” value was -0.0245 ± 0.005 in experiment [3] (6700 nM); 0.002 ± 0.023 in experiment [3] (20000 nM); 0.048 ± 0.023 in experiment [3] (60000 nM); -0.001 ± 0.0085 in experiment [4] (6700 nM); -0.012 ± 0.033 in experiment [4] (20000 nM); 0.0005 ± 0.018 in experiment [4] (60000 nM). Also, the “level (log10)” value in experiment [5] (6700 nM) is -0.0265 ± 0.021; in experiment [5] (20000 nM), 0.0035 ± 0.016; in experiment [5] (60000 nM) it was -0.014 ± 0.016; in experiment [6] (6700 nM), -0.0085 ± 0.057; in experiment [6] (20000 nM), -0.005 ± 0.013; in experiment [6] (60000 nM), 0.0165 ± 0.029.

Consider BF4T:CD90, for which the “level (log10)” value was -0.0055 ± 0.00071 in experiment [1] (6700 nM); -0.0085 ± 0.0078 in experiment [1] (20000 nM); -0.035 ± 0.0099 in experiment [1] (60000 nM); -0.026 ± 0.014 in experiment [2] (6700 nM); -0.0175 ± 0.0092 in experiment [2] (20000 nM); -0.0125 ± 0.0078 in experiment [2] (60000 nM). For the same test system, the “level (log10)” value is 0.003 ± 0.018 in experiment [3] (6700 nM); -0.009 ± 0.0028 in experiment [3] (20000 nM); 0.001 ± 0.017 in experiment [3] (60000 nM); -0.002 ± 0.0085 in experiment [4] (6700 nM); -0.0125 ± 0.0092 in experiment [4] (20000 nM); 0.001 ± 0.0028 in experiment [4] (60000 nM). For the same test system, the “level (log10)” value was -0.0065 ± 0.0078 in experiment [5] (6700 nM); -0.014 ± 0.0057 in experiment [5] (20000 nM); 0.0065 ± 0.0021 in experiment [5] (60000 nM); -0.0005 ± 0.013 in experiment [6] (6700 nM); -0.0105 ± 0.0035 in experiment [6] (20000 nM); 0.018 ± 0.0028 in experiment [6] (60000 nM).

Take BF4T:CD106/VCAM-1: the “level (log10)” value in experiment [1] (6700 nM) is -0.0295 ± 0.022; in experiment [1] (20000 nM) it was -0.104 ± 0.0099; in experiment [1] (60000 nM), -0.198 ± 0.013; in experiment [2] (6700 nM), -0.0055 ± 0.015; in experiment [2] (20000 nM), -0.015 ± 0.017; in experiment [2] (60000 nM) it was -0.021 ± 0.0071. Moreover, the “level (log10)” value in experiment [3] (6700 nM) is -0.016 ± 0.0057; in experiment [3] (20000 nM), -0.021 ± 0.0042; in experiment [3] (60000 nM) it was 0.017 ± 0.045; in experiment [4] (6700 nM), -0.015 ± 0.0028; in experiment [4] (20000 nM) it was -0.014 ± 0.0042; in experiment [4] (60000 nM), -0.003 ± 0.023. Moreover, the “level (log10)” value in experiment [5] (6700 nM) was -0.007; in experiment [5] (20000 nM) it was -0.0355 ± 0.0021; in experiment [5] (60000 nM) it was -0.044 ± 0.031; in experiment [6] (6700 nM), -0.0095 ± 0.04; in experiment [6] (20000 nM), -0.0275 ± 0.025; in experiment [6] (60000 nM), 0.0225 ± 0.019.
